Where two headings read alike, the source gives them in different places. Marks after values point to notes of the source that are not given here. *1 amine or outer side, *2 acyl side, *3 side chain or, on linkers, in order; H or OH if unused. Where a SMILES comes first, the peptide text is derived from it. Bridges are numbered along the chain shown (N, C = ends). [ ]: non-standard residue; d: D form. The star is where a group is joined. Leu(3R-OH,Nα-propionyl) = CCC(=O)N[C@H](C(=O)*)[C@H](O)C(C)C; X1 = CC(C)[C@@H](O[*:3])[C@H](N[*:1])C(=O)[*:2]; NMeT = CN[C@H](C(=O)O)[C@@H](C)O; dPhLac = O=C(O)[C@H](O)Cc1ccccc1; NMeA = CN[C@@H](C)C(=O)O; NMeDha = C=C(NC)C(=O)O
Experiments:
D2long receptors = conditions: read-out: EC50 (DMR); cited from earlier work
CHO-K1 hD2longR cells = format: cell-based, human
[1] = system: untransfected CHO-K1 cells; assay: DMR off-target test in untransfected CHO-K1 cells
[2] = target: T1, human dopamine D2long receptor (Homo sapiens, UniProt P14416)
T1 sequence (P14416 whole entry): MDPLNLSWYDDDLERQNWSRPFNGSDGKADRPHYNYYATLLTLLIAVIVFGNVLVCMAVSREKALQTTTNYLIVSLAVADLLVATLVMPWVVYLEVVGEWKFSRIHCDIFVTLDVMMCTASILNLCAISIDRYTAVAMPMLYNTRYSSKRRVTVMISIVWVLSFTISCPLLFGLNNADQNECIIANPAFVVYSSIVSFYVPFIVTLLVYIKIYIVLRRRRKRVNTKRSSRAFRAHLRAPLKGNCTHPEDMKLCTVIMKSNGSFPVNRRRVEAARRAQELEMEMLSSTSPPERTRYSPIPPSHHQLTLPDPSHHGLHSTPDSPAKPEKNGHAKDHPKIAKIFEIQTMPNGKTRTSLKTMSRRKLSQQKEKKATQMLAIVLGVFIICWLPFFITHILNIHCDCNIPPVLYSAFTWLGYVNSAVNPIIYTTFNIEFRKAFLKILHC

[3] = target: T1, human dopamine D2long receptor; assay: cell-based; conditions: CHO-K1, read-out: DMR Emax (%)
[4] = target: T1, human dopamine D2long receptor; remark: listed apart in the source
hD2longR [5] = target: T2, hD2longR (Homo sapiens, UniProt P14416); format: cell-based
T2 sequence (P14416 whole entry): as above

hD2longR [6] = target: T2, hD2longR; conditions: cited from earlier work
D2R = conditions: cited from earlier work; for Emax, [35S]GTPγS binding: relative to dopamine
[7] = CHO-K1 hD2longR cells pretreated with the agent (PTX, CTX about 20 h; FR900359 2 h; forskolin 1 μM 40 min; EGTA 2 mM in assay buffer)

NCCc1ccc(O)c(O)c1 [Dopamine, dopamine]
EC50 (D2long receptors): 11 nM

O=C(O)CN(CCOCCOCCN(CC(=O)O)CC(=O)O)CC(=O)O [EGTA]
effect on the quinpirole induced DMR response (CHO-K1 hD2longR cells; [7]): completely abrogated the quinpirole-induced response

C=C1C(=O)N[C@@H](C)C(=O)N(C)[C@@H](C)C(=O)N[C@@H]([C@H](OC(=O)[C@@H](NC(=O)CC)[C@H](O)C(C)C)C(C)C)C(=O)N(C)[C@@H]([C@@H](C)OC)C(=O)O[C@H](C(C)C)[C@H](NC(C)=O)C(=O)O[C@H](Cc2ccccc2)C(=O)N1C [FR900359] (Ac-[X1][dPhLac][NMeDha]A[NMeA][X1](Leu(3R-OH,Nα-propionyl))[NMeT](Me); ester 1-C)
DMR response induced by the agent alone in CHO-K1 hD2longR cells (CHO-K1 hD2longR cells): did not induce a DMR response
effect on the quinpirole induced DMR response (CHO-K1 hD2longR cells; [7]): did not show a pronounced effect

O=C(CCCN1CCC(O)(c2ccc(Cl)cc2)CC1)c1ccc(F)cc1 [Haloperidol, haloperidol]
DMR response in untransfected CHO-K1 cells (off-target activity) [1]: slight negative DMR response

CNc1cc(OC)c(C(=O)NC2CCN(Cc3ccccc3)C2C)cc1Cl (centres unmarked) [Nemonapride, nemonapride]
Hill Slope of inhibition curve [2]: −1.95
DMR response in untransfected CHO-K1 cells (off-target activity) [1]: slight negative DMR response

CCCN[C@H]1CCc2nc(N)sc2C1 [Pramipexole, pramipexole]
EC50 (D2long receptors): 8.7 nM
Emax [3]: 97 ± 0.1%
quality of action in the DMR assay (full / partial agonist) [4]: full agonists

CCN1CCC[C@H]1CNC(=O)c1cc(S(N)(=O)=O)ccc1OC [S-(−)-sulpiride]
Hill Slope of inhibition curve ([2]; antagonist mode, versus 30 nM quinpirole): −1.18

C=C[C@@]1(C)CC(=O)[C@]2(O)[C@@]3(C)[C@@H](O)CCC(C)(C)[C@@H]3[C@H](O)[C@H](OC(C)=O)[C@@]2(C)O1 [forskolin]
effect on the quinpirole induced DMR response (CHO-K1 hD2longR cells; [7]): increase in quinpirole efficacy
time of minimum of the forskolin DMR signal (CHO-K1 hD2longR cells; forskolin alone): about 5 min
DMR response induced by the agent alone in CHO-K1 hD2longR cells (CHO-K1 hD2longR cells; without quinpirole, thapsigargin in EGTA (2 mM) containing buffer, forskolin 1 μM): negative DMR signal
effect on receptor expression ([3H]N-methylspiperone binding) (hD2longR [5]; forskolin 1 μM for 40 min): did not exhibit a marked effect on the receptor expression
effect on receptor expression ([3H]N-methylspiperone binding) (hD2longR [5]; forskolin 1 μM for 20 h): strong increase in specific radioligand binding

C/C=C(/C)C(=O)O[C@H]1C(C)=C2[C@H]([C@@H]1OC(=O)CCCCCCC)[C@@](C)(OC(C)=O)C[C@H](OC(=O)CCC)[C@@]1(O)[C@H]2OC(=O)[C@@]1(C)O [thapsigargin]
DMR response induced by the agent alone in CHO-K1 hD2longR cells (CHO-K1 hD2longR cells): rapidly decreasing negative DMR signal
time to plateau of the thapsigargin-induced negative DMR signal (CHO-K1 hD2longR cells; EGTA containing assay buffer): approximately 15 min
effect on the quinpirole induced DMR response (CHO-K1 hD2longR cells; thapsigargin (1 μM or 2 μM, 20 min) in combination with EGTA (2 mM)): completely abrogated the quinpirole-induced response

R-(−)-apomorphine
DMR Emax (%) [4]: 102 ± 5%
quality of action in the DMR assay (full / partial agonist) [4]: full agonist
β-arrestin2 recruitment Emax (%) (hD2longR [6]): 87 ± 3^a %
pEC50, [35S]GTPγS binding (D2R; ref 42): 7.66
pEC50, [35S]GTPγS binding (D2R; ref 49): 6.76
Emax, [35S]GTPγS binding (D2R; ref 42): 53%
Emax, [35S]GTPγS binding (D2R; ref 49): 90%
DMR response in untransfected CHO-K1 cells (off-target activity) [1]: did not elicit a DMR signal

cholera toxin [CTX]
DMR response induced by the agent alone in CHO-K1 hD2longR cells (CHO-K1 hD2longR cells): did not induce a DMR response
effect on the quinpirole induced DMR response (CHO-K1 hD2longR cells): apparent increase in quinpirole efficacy
effect on receptor expression ([3H]N-methylspiperone binding) (hD2longR [5]): slight up-regulation

pertussis toxin [PTX]
DMR response induced by the agent alone in CHO-K1 hD2longR cells (CHO-K1 hD2longR cells): did not induce a DMR response
effect on the quinpirole induced DMR response (CHO-K1 hD2longR cells; [7]): concentration-dependent decrease in the DMR response

Source: publication PMC9187652, “Investigating the ligand agonism and antagonism at the D2long receptor by dynamic mass redistribution” (Scientific Reports, 2022)
